One test addresses T1, STAT6 (Homo sapiens, UniProt P42226).
T1 construct: stably transfected HaCaT keratinocyte cell line, which expresses NanoLuc luciferase reporter gene under the transcriptional control of the STAT6 responsive promoter; endogenous in cells; host or cells: HaCaT keratinocyte reporter cell line (stably transfected with a NanoLuc reporter)
T1 sequence (P42226 1-847): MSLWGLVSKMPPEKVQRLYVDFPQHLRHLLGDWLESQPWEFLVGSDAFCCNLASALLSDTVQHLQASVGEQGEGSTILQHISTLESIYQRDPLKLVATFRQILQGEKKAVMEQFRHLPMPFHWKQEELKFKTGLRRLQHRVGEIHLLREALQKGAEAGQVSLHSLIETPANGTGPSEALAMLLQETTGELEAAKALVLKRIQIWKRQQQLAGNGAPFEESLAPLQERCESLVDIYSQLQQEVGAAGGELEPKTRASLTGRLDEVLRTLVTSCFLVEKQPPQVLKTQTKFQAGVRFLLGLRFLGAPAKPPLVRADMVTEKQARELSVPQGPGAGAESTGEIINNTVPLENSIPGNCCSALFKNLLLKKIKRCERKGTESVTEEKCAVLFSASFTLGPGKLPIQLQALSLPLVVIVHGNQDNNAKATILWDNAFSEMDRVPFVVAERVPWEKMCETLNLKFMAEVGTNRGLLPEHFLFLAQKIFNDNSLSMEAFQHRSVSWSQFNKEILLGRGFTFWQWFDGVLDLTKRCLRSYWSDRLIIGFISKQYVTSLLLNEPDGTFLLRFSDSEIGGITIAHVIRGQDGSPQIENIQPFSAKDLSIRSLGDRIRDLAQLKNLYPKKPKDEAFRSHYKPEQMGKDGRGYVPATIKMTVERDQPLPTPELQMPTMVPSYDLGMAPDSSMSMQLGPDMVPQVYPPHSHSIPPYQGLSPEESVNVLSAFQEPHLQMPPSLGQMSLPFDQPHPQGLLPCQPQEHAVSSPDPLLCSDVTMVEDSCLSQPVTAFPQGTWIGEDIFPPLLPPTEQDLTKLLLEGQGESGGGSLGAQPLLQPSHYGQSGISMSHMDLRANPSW
Put plainly: STAT6 Reporter Luciferase Assay (IL-13 stimulated HaCaT keratinocyte NanoLuc reporter cells). Conditions: read-out: Reporter EC50. It counts as cell-based. An outline of the steps: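 Luminescence from a NanoLuc reporter driven by the STAT6-responsive IL-13Ra2 promoter in HaCaT keratinocytes serves as the read-out. Compounds are given 2 h before a 4 h stimulation with 0.12 nM IL-13.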

Test [1] concerns CCL17 secretion in peripheral human whole blood. Put plainly: Human Whole Blood (HWB) CCL17 TR-FRET Assay (IL-13 stimulated CCL17 secretion). In kind it is cell-based. An outline of the steps:
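Heparinized peripheral human whole blood was preincubated with compound (11-point, 3-fold series, duplicate) for 2 h at 37 °C, then stimulated with IL-13 at 10 ng/mL final for 48 h at 37 °C. Secreted CCL17 in the serum was quantified by TR-FRET sandwich immunoassay (665/615 nm ratio, 16 h RT); IC50 derived.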

Where [2] appears, read: IL-13 stimulated HaCaT STAT6 NanoLuc reporter cells.
[3] abbreviates: Homo sapiens, 48 h, human whole blood, IL-13 stimulated.
Setting [4] is: STAT6 NanoLuc luciferase reporter, IL-13 stimulated HaCaT keratinocyte cells.
The mark [5] stands for this setting: Homo sapiens, 48 h, inhibition of CCL17 secretion in human whole blood, 10 ng/mL IL13, 48 hours.
[6] abbreviates: Homo sapiens, 48 h, human whole blood, 10 ng/mL IL13, 48 hours.

Like-named read-outs stand apart in the source and are kept apart here. Some results are limits rather than exact numbers.

`CCn1nc(C(=O)NCc2ccc(NC(=O)N3CCN(C)CC3)cc2)c2c1[C@@H](C)CN(c1ccc(C(=O)N(C)C)cc1)C2` [Example 398, (S)-5-(4-(dimethylcarbamoyl)phenyl)-1-ethyl-7-methyl-N-(4-(4-methylpiperazine-1-carboxamido)benzyl)-4,5,6,7-tetrahydro-1H-pyrazolo[4,3-c]pyridine-3-carboxamide]: the EC50 at STAT6 (setting [2]) worked out at 0.0003 µM. Besides, in test [1] (setting [3]), 0.007 µM corresponded to half-maximal inhibition (IC50).

As to `CC(C)n1nc(C(=O)NCc2ccc(-c3ncc[nH]3)cc2)c2c1CCN(c1ccc(N3CCCC3=O)cn1)C2` [Example 38, N-(4-(1H-imidazol-2-yl)benzyl)-1-isopropyl-5-(5-(2-oxopyrrolidin-1-yl)pyridin-2-yl)-4,5,6,7-tetrahydro-1H-pyrazolo[4,3-c]pyridine-3-carboxamide], the EC50 on STAT6 (setting [4]) came out at 0.072 µM. Further, half-maximal inhibition in test [1] (setting [5]) (IC50) required 1.64 µM.

On to `Cc1cncc(-c2ccc(CNC(=O)c3nn(C(C)C)c4c3CN(c3ccc(C(=O)N(C)C)cc3)C[C@H]4C)cc2)n1` [Example 724, (R)-5-(4-(dimethylcarbamoyl)phenyl)-1-isopropyl-7-methyl-N-(4-(6-methylpyrazin-2-yl)benzyl)-4,5,6,7-tetrahydro-1H-pyrazolo[4,3-c]pyridine-3-carboxamide], for which the EC50 on STAT6 (setting [2]) was 0.129 µM. This compound yielded an IC50 in test [1] (Homo sapiens, 48 h, human whole blood, IL-13 10 ng/mL) of 5.06 µM.

For `CC(C)n1nc(C(=O)NCc2ccc(NC(=O)N(C)C)cc2)c2c1C(O)CN(c1ccc(C(=O)N(C)C)cn1)C2` (racemic) [Example 472, rac-(R)-5-(5-(dimethylcarbamoyl)pyridin-2-yl)-N-(4-(3,3-dimethylureido)benzyl)-7-hydroxy-1-isopropyl-4,5,6,7-tetrahydro-1H-pyrazolo[4,3-c]pyridine-3-carboxamide], at STAT6 (setting [2]), the EC50 came out at 0.041 µM. The same compound registered an IC50 in test [1] (setting [3]) of 0.12 µM.

As for `Cc1nc(C(=O)NCc2ccc(NC(=O)N(C)C)cc2)c2n1C(C)CN(c1ccc(C(=O)N(C)C)cn1)C2` (single isomer, unassigned) [Example 53, rel-(R or S)-7-(5-(dimethylcarbamoyl)pyridin-2-yl)-N-(4-(3,3-dimethylureido)benzyl)-3,5-dimethyl-5,6,7,8-tetrahydroimidazo[1,5-a]pyrazine-1-carboxamide], the EC50 at STAT6 (setting [4]) is 0.008 µM. In test [1] (inhibition of CCL17 secretion in human whole blood, 10 ng/mL IL13, 48 hours), this compound had an IC50 of 0.019 µM.

For `CCn1nc(C(=O)NCc2ccc(NC(=O)N(C)C)cc2)c2c1[C@H](C)CN(c1ccc(C(=O)N(C)C)cn1)C2` (single isomer, unassigned) [Example 63], at STAT6 (setting [4]), the EC50 worked out at 0.014 µM. The compound further gave an IC50 in test [1] (setting [5]) of 0.105 µM.

Consider `CC[C@H]1c2c(C(=O)NCc3ccc(NC(=O)N(C)C)cc3)nn(C(C)C)c2CCN1c1ccc(C(=O)N(C)C)cn1` (single isomer, unassigned) [Example 527], for which the EC50 at STAT6 (setting [2]) worked out at 8.87 µM. For the same compound, the IC50 in test [1] (human whole blood, 10 ng/mL IL13, 48 hours) is more than 25.1 µM.

On to `CC(C)n1nc(C(=O)NCc2ccc(NC(=O)N3CC[C@@](C)(N)C3)cc2)c2c1[C@@H](C)CN(c1ccc(C(=O)N(C)C)cc1)C2` [Example 572, (S)-N-(4-((R)-3-amino-3-methylpyrrolidine-1-carboxamido)benzyl)-5-(4-(dimethylcarbamoyl)phenyl)-1-isopropyl-7-methyl-4,5,6,7-tetrahydro-1H-pyrazolo[4,3-c]pyridine-3-carboxamide], for which the 50% effective concentration (EC50) on STAT6 (setting [2]) was 0.003 µM. The same compound returned an IC50 in test [1] (setting [6]) of 0.02 µM.

As to `C[C@H]1CN(c2ncc(-c3nccn3C)cn2)Cc2c(C(=O)NCc3ccc(NC(=O)N(C)C)cc3)nn(C)c21` [Example 502, (S)-N-(4-(3,3-dimethylureido)benzyl)-1,7-dimethyl-5-(5-(1-methyl-1H-imidazol-2-yl)pyrimidin-2-yl)-4,5,6,7-tetrahydro-1H-pyrazolo[4,3-c]pyridine-3-carboxamide], on STAT6 (setting [2]), the EC50 turned out to be 0.813 µM. Further, the IC50 in test [1] (setting [3]) worked out at 7.55 µM.

As for `CC(C)n1nc(C(=O)NCc2ccc(-c3ncc[nH]3)cc2)c2c1C[C@H](C)N(c1ccc(C(=O)N(C)C)cn1)C2` [Example 536, (S)-N-(4-(1H-imidazol-2-yl)benzyl)-5-(5-(dimethylcarbamoyl)pyridin-2-yl)-1-isopropyl-6-methyl-4,5,6,7-tetrahydro-1H-pyrazolo[4,3-c]pyridine-3-carboxamide], the EC50 at STAT6 (setting [2]) is 0.004 µM. The same compound gave a 50% inhibitory concentration (IC50) in test [1] (setting [6]) of 0.031 µM.

For `CN(C)C(=O)Nc1ccc(CNC(=O)c2nn(C3CCOC3)c3c2CN(c2ccc(C(=O)N(C)C)cn2)CC3)cc1` (racemic) [Example 90, rac-(R)-5-(5-(dimethylcarbamoyl)pyridin-2-yl)-N-(4-(3,3-dimethylureido)benzyl)-1-(tetrahydrofuran-3-yl)-4,5,6,7-tetrahydro-1H-pyrazolo[4,3-c]pyridine-3-carboxamide], the EC50 at STAT6 (setting [4]) was 0.025 µM. Also, half-maximal inhibition in test [1] (setting [5]) (IC50) required 0.067 µM.

For `CC(C)n1nc(C(=O)NCc2ccc(N)cc2)c2c1[C@@H](C)CN(c1ccc(C(=O)N(C)C)cn1)C2` [Example 450, (S)-N-(4-aminobenzyl)-5-(5-(dimethylcarbamoyl)pyridin-2-yl)-1-isopropyl-7-methyl-4,5,6,7-tetrahydro-1H-pyrazolo[4,3-c]pyridine-3-carboxamide], at STAT6 (setting [2]), the EC50 is 0.021 µM. Also, in test [1] (setting [3]), the midpoint of inhibition, the IC50, lay at 0.093 µM.

With `CN[C@H]1CCN(C(=O)Nc2ccc(CNC(=O)c3nn(C(C)C)c4c3CN(c3ccc(C(=O)N(C)C)cc3)C[C@@H]4C)cc2)C1` [Example 571, (S)-5-(4-(dimethylcarbamoyl)phenyl)-1-isopropyl-7-methyl-N-(4-((S)-3-(methylamino)pyrrolidine-1-carboxamido)benzyl)-4,5,6,7-tetrahydro-1H-pyrazolo[4,3-c]pyridine-3-carboxamide], the EC50 on STAT6 (setting [2]) amounted to 0.004 µM. Further, in test [1] (setting [6]), the IC50 came to 0.02 µM.

As to `CN(C)C(=O)Nc1ccc(CNC(=O)c2nn(C)c3c2CN(c2ccc(C(=O)N(C)C)cn2)C2(CC2)C3)cc1` [Example 400, 5′-(5-(dimethylcarbamoyl)pyridin-2-yl)-N-(4-(3,3-dimethylureido)benzyl)-1′-methyl-1′,4′,5′,7′-tetrahydrospiro[cyclopropane-1,6′-pyrazolo[4,3-c]pyridine]-3′-carboxamide], the EC50 at STAT6 (setting [2]) was determined as 1.04 µM. In addition, it took 2.57 µM to reach half-maximal inhibition in test [1] (setting [3]) (IC50).

For the compound `CC(C)n1nc(C(=O)NCc2ccc(NC(=O)N(C)C)cc2)c2c1CCN(c1ccc(C3CCCO3)cn1)C2` (single isomer, unassigned) [Example 362, rel-(R or S)-N-(4-(3,3-dimethylureido)benzyl)-1-isopropyl-5-(5-(tetrahydrofuran-2-yl)pyridin-2-yl)-4,5,6,7-tetrahydro-1H-pyrazolo[4,3-c]pyridine-3-carboxamide], on STAT6 (setting [2]), the EC50 worked out at 0.838 µM. Also, in test [1] (human whole blood, IL-13 stimulated, 48 hours), the concentration for half-maximal inhibition (IC50) is more than 3.49 µM.

In the case of `CC(C)n1nc(C(=O)NCc2ccc(NC(=O)N3CCC(C4CCNCC4)CC3)cc2)c2c1[C@@H](C)CN(c1ccc(C(=O)N(C)C)cc1)C2` [Example 620, (S)-N-(4-([4,4′-bipiperidine]-1-carboxamido)benzyl)-5-(4-(dimethylcarbamoyl)phenyl)-1-isopropyl-7-methyl-4,5,6,7-tetrahydro-1H-pyrazolo[4,3-c]pyridine-3-carboxamide], at STAT6 (setting [2]), the EC50 came out at 0.001 µM. In test [1] (setting [6]), this compound came in with an IC50 of 0.008 µM.

In the case of `CC(C)n1nc(C(=O)NCc2ccc(NC(=O)N(C)C)cc2)c2c1[C@@H](C)CN(c1ccc(C(=O)N(C)C)cn1)[C@@H]2C` (single isomer, unassigned) [Example 529], the EC50 on STAT6 (setting [2]) was 0.0001 µM. The same compound returned an IC50 in test [1] (setting [6]) of 0.004 µM.

Consider `CNC(=O)c1ccc(CNC(=O)c2nn(C(C)C)c3c2CN(c2ccc(C(=O)N(C)C)cn2)C[C@@H]3C)cc1` [Example 341, (S)-5-(5-(dimethylcarbamoyl)pyridin-2-yl)-1-isopropyl-7-methyl-N-(4-(methylcarbamoyl)benzyl)-4,5,6,7-tetrahydro-1H-pyrazolo[4,3-c]pyridine-3-carboxamide], for which the EC50 on STAT6 (setting [2]) came out at 0.004 µM. In test [1] (setting [3]), the IC50 came to 0.028 µM.

The values are drawn from patent publication US20250320213A1, “Nitrogen-Containing Heterocyclic Compounds” (Pfizer Inc., priority 2024, published 2025).
